{"source": "paper PMC5520492", "about": "“Inhibition of DNA2 nuclease as a therapeutic strategy targeting replication stress in cancer cells” (Oncogenesis, 2017)", "key": {"[1]": {"tested_on": "Hs578T and BT549 versus MCF10A cells", "assay": "MTT proliferation, breast cell lines", "assay_type": "cell-based, human", "details": "48-h treatment", "description": "Figure 5 Oncogene induction enhances sensitivity of cancer cells to NSC-105808. (a-e) Graphs showing proliferation of indicated cell lines in response to a 48-h treatment with the indicated concentrations of NSC-105808. Proliferation relative to cells treated with vehicle alone was determined by the 3-(4,5-dimethylthiazol-2-yl)-2,5-diphenyltetrazolium bromide (MTT) assay. Each value represents the mean±s.e.m. from three independent experiments. (a) Proliferation of control pancreatic epithelial cells DT-PD59 and transformed pancreatic cancer cells AsPC-1 and PANC-1. (b) Proliferation of normal breast epithelial cells MCF10A and breast cancer cells Hs578T and BT549. (c) Proliferation of MCF10A cells with or without H-Ras expression. H-Ras was induced with doxycycline (2 μg/ml). […]\nCell proliferation was measured by 3-(4,5-dimethylthiazol-2-yl)-2,5-diphenyltetrazolium bromide (Sigma) reduction (Supplementary Materials and Methods).\nTo determine the cell proliferation rate, 1000 cells/well were seeded in a 96-well plate in a total volume of 100 µl in triplicate in each experiment. […] Plates were read at 490 nm and 650 nm (background) in a\nmicroplate reader (Molecular Devices). After the subtraction of background, cell viability was calculated as fold change relative to control cells."}, "EXO1": {"target": "T1, EXO1 (Homo sapiens, UniProt Q9UQ84)", "T1 construct": "made in house", "T1 sequence (Q9UQ84 1-846)": "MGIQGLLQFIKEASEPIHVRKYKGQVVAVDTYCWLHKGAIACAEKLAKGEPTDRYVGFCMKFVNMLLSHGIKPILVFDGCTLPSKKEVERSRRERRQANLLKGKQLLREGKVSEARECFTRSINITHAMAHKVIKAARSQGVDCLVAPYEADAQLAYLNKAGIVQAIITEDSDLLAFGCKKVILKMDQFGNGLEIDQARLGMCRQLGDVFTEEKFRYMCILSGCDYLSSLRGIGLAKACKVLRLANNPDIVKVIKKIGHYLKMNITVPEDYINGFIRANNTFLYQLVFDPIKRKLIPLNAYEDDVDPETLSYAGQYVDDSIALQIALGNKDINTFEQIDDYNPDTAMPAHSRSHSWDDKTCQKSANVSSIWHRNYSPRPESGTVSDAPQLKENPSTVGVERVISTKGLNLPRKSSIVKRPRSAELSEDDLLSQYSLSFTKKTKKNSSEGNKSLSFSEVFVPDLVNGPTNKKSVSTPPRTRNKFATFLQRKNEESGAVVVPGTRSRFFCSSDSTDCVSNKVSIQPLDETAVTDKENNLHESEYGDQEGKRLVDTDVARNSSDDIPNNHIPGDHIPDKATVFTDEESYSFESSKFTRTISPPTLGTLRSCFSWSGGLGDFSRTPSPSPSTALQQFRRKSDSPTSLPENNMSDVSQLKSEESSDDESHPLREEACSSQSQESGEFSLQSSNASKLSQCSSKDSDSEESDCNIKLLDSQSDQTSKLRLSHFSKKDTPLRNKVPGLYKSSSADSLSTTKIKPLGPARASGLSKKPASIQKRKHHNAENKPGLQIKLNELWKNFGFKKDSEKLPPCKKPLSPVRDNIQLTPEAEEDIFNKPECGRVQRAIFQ", "assay": "EXO1 nuclease assay (2 kb dsDNA degradation)", "assay_type": "biochemical", "details": "10 µM; EXO1 5 nM", "description": "Nuclease assays were performed in buffer R (20 mM Na-HEPES pH 7.5, 1 mM ATP, 0.1 mM DTT, 100 μg/ml bovine serum albumin, 0.05% Triton X-100, 2 mM MgCl2, 100 mM KCl) and contained 0.5 nM ends (2-kb substrate) or 5 nM ends (the ssDNA oligonucleotide PSOL6929) of DNA. Reactions containing Bloom syndrome also included an ATP regenerating system consisting of 10 mM creatine phosphate and 50 μg/ml creatine kinase. In control reactions, DMSO was used in place of the inhibitor. Reactions with DNA2 alone were incubated at 30 °C, and those with DNA2-Bloom syndrome-Replication protein A and EXO1 were incubated at 37 °C for the indicated times. […] Gels were dried onto DEAE paper on top of Whatman filter paper (GE, Issaquah, WA, USA) and then analyzed in a BioRad Personal Molecular Imager FX phosphorimager. Band intensity was quantified using Image Lab software (Bio-Rad, Hercules, CA, USA). The fraction of DNA substrate digested was determined by measuring the amount of substrate remaining and normalizing to the total substrate in the negative control lane containing no protein.\nFigure S2. […] (b) Plots showing quantitation of the experiments shown in a. […] (d) Plots showing quantitation of the experiments shown in c. […] (f) Plot showing quantitation of the experiment in e. […]"}}, "data": [{"compound": "NC1=C(Br)C(=O)c2ncccc2C1=O", "note": "[NSC-105808, 6-amino-7-bromoquinoline-5,8-dione]", "values": [{"measurement": "Sensitivity of transformed breast cancer cells compared with MCF10A", "setting": "[1]", "value": "more sensitive"}, {"measurement": "Effect on nuclease activity of EXO1", "setting": "EXO1", "value": "does not inhibit"}]}]}
